This passage reports remaining binding results from patent US12275731B2, “Azaindole inhibitors of wild-type and mutant forms of LRRK2” (DANA-FARBER CANCER INSTITUTE, INC., priority 2018, dated 2025).

Holding throughout (experiment): KinomeScan profiling
What all share (type): binding

For experiment [1], the target named is CDK5 (Homo sapiens, UniProt Q00535). As to conditions: CDK5, 1 μM; read-out: % control. An outline of the steps:
(§1)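 Selectivity was assessed by binding competition at 1 μM against 468 kinases. Values below 35% of control define an interaction.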

Experiment [2] addresses EGFR(S752-I759del) (Homo sapiens, UniProt P00533, DEL752-759). Conditions: read-out: % control. An outline of the steps: as §1
The target in experiment [3] is EIF2AK1 (Homo sapiens, UniProt Q9BQI3). Conditions: EIF2AK1, 1 μM; read-out: % control. In a few lines: as §1
Sequence of EIF2AK1 (Q9BQI3 whole entry): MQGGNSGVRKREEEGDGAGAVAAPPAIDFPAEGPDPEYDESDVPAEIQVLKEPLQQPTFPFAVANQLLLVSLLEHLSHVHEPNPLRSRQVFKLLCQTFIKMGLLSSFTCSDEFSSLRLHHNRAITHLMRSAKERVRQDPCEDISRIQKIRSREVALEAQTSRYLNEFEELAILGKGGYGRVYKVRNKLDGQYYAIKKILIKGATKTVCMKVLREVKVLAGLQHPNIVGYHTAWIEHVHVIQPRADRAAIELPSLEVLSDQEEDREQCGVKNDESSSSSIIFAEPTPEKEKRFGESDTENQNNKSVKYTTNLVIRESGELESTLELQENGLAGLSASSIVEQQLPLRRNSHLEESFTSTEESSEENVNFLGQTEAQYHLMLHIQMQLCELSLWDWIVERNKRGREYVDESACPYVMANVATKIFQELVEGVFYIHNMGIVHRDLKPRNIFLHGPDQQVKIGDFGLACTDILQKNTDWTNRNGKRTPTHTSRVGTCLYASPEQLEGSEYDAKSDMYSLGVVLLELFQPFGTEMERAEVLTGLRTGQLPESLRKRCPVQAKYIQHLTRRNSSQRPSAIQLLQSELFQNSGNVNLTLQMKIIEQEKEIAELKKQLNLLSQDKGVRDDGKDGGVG
Experiment [4] has as its target HCK (Homo sapiens, UniProt P08631). Conditions: read-out: % control. In a few lines: as §1
Experiment [5] addresses T1, KIT (Homo sapiens, UniProt P10721).
T1 construct: purchased KinomeScan®
As to conditions: read-out: % control. An outline of the steps: as §1

Experiment [6] has as its target LTK (Homo sapiens, UniProt P29376). Conditions: read-out: % control. An outline of the steps: as §1
Experiment [7] addresses MARK1 (Homo sapiens, UniProt Q9P0L2). Conditions: MARK1, 1 μM; read-out: % control. In a few lines:
as §1

In experiment [8] the target is T2, PRKCI (Homo sapiens, UniProt P41743).
T2 sequence (P41743 1-596): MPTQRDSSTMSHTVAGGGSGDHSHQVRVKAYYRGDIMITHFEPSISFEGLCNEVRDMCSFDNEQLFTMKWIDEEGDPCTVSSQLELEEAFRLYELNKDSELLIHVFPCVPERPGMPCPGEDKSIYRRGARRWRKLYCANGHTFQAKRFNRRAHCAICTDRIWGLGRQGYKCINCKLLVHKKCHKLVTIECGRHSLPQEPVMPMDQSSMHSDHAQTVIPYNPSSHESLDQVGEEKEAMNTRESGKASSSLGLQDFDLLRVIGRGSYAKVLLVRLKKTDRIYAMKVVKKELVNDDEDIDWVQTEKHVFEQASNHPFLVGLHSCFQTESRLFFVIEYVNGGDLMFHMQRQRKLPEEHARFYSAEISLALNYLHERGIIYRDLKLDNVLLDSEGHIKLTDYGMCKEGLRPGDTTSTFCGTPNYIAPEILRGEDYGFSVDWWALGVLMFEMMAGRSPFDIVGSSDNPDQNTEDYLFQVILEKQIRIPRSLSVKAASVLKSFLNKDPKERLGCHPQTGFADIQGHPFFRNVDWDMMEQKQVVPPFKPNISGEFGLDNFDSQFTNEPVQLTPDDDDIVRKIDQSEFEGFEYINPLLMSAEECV
As to conditions: read-out: % control. In a few lines: as §1

The target of experiment [9] is T3, PRKX (Homo sapiens, UniProt P51817).
T3 sequence (P51817 1-358): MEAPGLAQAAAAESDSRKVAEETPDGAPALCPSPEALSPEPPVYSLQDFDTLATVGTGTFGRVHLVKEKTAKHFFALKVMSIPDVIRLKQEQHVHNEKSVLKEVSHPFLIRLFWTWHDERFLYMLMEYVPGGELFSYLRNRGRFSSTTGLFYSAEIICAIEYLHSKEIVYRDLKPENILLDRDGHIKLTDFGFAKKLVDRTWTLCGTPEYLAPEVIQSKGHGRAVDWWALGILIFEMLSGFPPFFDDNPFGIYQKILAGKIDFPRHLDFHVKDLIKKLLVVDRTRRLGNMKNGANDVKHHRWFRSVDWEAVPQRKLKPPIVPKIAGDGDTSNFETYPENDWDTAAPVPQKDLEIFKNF
Conditions: read-out: % control. In a few lines:
as §1

The target of experiment [10] is T4, SNARK (Homo sapiens, UniProt Q9H093).
T4 construct: purchased KinomeScan® (panel service)
T4 sequence (Q9H093 1-628): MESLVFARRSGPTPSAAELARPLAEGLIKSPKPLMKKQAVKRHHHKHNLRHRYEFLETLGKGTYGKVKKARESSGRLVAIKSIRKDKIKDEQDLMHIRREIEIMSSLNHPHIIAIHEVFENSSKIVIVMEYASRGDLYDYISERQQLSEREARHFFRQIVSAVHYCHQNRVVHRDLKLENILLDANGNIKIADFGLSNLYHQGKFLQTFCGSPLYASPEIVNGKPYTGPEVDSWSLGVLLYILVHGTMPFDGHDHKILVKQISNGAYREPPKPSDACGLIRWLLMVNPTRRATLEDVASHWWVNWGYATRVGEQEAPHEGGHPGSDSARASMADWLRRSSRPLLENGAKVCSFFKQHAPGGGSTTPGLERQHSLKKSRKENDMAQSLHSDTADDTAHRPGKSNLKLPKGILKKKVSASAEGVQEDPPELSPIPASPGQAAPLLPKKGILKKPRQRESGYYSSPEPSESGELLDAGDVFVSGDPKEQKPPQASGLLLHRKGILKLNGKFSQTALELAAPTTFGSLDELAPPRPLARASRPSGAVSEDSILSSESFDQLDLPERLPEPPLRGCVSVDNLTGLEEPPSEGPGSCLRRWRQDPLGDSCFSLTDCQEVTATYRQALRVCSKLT
As to conditions: read-out: % control. In a few lines:
as §1

In experiment [11] the target is T5, TGFBR1 (Homo sapiens, UniProt P36897).
T5 sequence (P36897 34-503): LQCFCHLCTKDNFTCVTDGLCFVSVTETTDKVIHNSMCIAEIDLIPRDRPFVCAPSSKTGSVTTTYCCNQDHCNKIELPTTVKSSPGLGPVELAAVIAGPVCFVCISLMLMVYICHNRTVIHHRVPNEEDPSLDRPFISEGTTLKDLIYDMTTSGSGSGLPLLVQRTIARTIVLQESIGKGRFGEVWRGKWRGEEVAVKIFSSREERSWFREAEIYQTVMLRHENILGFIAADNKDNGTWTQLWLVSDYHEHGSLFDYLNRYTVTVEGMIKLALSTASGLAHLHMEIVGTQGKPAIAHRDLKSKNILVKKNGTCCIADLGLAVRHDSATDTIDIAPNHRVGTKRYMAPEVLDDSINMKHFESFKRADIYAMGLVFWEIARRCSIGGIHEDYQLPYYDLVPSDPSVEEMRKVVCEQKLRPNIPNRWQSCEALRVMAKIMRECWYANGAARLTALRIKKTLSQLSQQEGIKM
Conditions: TGFBR1, 1 μM; read-out: % control. An outline of the steps: as §1

Sequence of LTK (P29376 17-864): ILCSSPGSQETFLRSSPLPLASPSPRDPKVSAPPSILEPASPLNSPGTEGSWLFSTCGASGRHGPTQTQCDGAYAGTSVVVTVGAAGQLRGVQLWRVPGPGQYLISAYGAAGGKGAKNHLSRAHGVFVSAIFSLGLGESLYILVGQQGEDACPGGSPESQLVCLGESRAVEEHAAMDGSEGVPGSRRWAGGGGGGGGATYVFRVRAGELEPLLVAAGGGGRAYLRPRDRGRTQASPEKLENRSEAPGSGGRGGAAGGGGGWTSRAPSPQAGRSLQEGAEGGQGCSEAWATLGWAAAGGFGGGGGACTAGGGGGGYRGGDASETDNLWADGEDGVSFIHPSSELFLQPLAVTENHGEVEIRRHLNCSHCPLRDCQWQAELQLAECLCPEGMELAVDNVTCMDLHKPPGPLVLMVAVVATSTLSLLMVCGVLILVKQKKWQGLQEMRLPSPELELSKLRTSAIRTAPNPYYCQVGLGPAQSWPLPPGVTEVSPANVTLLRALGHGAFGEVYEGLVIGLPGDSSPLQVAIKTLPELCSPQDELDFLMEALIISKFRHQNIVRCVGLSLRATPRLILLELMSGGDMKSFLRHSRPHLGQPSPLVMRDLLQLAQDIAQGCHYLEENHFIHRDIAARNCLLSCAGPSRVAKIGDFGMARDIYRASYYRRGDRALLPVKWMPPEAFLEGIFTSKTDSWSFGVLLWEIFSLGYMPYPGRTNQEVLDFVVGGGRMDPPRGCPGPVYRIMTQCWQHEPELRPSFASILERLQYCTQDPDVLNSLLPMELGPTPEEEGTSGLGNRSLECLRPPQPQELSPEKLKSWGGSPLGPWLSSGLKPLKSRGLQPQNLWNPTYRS
Sequence of MARK1 (Q9P0L2 whole entry): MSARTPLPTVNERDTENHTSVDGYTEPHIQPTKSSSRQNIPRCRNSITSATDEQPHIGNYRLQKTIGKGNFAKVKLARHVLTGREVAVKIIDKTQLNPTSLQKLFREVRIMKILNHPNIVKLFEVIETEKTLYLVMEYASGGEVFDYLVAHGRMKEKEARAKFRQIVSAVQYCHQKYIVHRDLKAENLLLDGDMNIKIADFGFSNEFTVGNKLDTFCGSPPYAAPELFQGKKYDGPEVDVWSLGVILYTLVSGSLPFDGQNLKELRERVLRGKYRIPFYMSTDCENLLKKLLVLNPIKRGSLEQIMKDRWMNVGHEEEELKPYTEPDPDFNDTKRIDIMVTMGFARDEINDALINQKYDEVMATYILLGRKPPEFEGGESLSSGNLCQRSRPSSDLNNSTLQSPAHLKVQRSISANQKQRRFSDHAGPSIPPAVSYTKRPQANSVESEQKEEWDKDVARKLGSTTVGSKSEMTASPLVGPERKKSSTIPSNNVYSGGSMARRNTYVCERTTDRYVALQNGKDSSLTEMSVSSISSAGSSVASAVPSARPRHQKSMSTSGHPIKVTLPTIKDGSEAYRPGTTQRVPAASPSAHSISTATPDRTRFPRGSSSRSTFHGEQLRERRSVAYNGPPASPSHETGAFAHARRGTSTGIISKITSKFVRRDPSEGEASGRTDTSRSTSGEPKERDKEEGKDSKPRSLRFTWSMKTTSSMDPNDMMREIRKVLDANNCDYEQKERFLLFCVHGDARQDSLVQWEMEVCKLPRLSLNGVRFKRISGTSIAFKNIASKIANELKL
T1 sequence (P10721 26-976): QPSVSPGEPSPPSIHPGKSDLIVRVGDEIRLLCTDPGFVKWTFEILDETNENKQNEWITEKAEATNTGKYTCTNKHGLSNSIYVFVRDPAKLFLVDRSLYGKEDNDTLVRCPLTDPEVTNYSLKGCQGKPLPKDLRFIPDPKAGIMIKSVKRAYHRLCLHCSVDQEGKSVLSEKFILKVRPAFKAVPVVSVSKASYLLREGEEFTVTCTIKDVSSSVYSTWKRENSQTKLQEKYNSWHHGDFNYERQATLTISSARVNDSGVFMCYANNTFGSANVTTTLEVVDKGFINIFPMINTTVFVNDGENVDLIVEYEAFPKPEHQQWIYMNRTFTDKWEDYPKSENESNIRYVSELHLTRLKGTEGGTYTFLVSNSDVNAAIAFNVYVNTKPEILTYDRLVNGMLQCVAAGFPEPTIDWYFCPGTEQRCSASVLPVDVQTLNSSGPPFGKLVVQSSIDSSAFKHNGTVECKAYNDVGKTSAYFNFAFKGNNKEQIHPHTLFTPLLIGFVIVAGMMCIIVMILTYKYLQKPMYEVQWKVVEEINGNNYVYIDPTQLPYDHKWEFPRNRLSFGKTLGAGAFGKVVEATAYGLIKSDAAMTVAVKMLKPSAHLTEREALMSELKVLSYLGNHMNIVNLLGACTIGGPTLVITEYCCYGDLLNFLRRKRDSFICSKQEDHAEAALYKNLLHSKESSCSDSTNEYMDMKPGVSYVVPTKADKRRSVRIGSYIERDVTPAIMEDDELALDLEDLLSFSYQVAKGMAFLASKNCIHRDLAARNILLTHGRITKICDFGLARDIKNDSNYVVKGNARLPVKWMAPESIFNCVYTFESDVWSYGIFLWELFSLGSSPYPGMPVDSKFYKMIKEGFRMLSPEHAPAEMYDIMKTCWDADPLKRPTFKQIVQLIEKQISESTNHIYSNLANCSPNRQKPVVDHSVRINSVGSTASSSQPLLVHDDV
Sequence of EGFR(S752-I759del) (P00533 with tags, fused parts or gaps DEL752-759): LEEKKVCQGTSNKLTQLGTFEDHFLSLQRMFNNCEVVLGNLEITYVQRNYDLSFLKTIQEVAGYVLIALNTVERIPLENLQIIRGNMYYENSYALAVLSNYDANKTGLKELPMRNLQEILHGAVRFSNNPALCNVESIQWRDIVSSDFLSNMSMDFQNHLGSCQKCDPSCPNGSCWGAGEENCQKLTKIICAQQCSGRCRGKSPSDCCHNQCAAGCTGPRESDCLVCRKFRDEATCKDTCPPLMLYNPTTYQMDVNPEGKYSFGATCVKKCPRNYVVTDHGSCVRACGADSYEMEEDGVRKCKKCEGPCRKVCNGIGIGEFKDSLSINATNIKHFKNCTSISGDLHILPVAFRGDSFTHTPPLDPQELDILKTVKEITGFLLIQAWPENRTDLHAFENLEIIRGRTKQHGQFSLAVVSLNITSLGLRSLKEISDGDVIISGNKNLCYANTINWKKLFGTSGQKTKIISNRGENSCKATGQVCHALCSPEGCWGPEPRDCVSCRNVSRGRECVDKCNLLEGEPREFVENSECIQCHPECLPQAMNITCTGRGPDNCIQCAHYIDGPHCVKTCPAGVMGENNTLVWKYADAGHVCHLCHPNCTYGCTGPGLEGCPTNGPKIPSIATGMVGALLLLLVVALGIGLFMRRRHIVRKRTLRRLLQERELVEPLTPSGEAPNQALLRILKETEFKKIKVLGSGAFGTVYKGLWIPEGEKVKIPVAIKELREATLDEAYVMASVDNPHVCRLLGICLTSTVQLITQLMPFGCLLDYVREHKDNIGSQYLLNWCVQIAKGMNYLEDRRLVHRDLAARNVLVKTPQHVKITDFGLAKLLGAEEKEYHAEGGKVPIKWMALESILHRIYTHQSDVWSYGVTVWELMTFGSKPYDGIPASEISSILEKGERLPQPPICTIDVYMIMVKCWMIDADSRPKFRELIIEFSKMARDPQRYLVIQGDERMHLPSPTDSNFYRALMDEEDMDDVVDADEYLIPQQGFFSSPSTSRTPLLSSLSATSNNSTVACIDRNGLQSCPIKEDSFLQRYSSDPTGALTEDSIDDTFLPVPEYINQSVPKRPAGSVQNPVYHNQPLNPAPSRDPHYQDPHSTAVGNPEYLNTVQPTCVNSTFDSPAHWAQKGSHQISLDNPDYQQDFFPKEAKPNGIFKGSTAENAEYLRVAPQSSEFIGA
Sequence of CDK5 (Q00535 whole entry): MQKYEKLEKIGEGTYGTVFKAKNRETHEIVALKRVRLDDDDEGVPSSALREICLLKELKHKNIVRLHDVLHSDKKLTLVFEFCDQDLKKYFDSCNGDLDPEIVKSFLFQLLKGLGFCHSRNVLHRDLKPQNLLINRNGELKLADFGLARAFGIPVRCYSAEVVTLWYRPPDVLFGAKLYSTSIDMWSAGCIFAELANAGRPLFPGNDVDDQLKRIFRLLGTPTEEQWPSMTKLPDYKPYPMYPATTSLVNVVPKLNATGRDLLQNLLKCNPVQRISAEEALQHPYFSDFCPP

As for `CNc1c(-c2cnn([C@H]3CCN(C(C)=O)C[C@@H]3F)c2)cnc2[nH]cc(Cl)c12` [Compound 77, 1-((3S,4S)-4-(4-(3-chloro-4-(methylamino)-1H-pyrrolo[2,3-b]pyridin-5-yl)-1H-pyrazol-1-yl)-3-fluoropiperidin-1-yl)ethan-1-one], the remaining binding at 1 µM was found to be 91% in experiment [1]; 100% in experiment [2]; 100% in [3]; 100% in experiment [4]; 4.8% in experiment [5]; 75% in experiment [6]. For the same compound, the remaining binding at 1 µM in [7] was determined as 71%; in [8], 67%; in [9], 100%; in experiment [10] it was 96%; in experiment [11], 60%.
As for `CNc1c(-c2ccc(C(=O)N3CCC(N4CCOCC4)CC3)cc2)cnc2[nH]cc(Cl)c12` [Compound 96, (4-(3-chloro-4-(methylamino)-1H-pyrrolo[2,3-b]pyridin-5-yl)phenyl)(4-morpholinopiperidin-1-yl)methanone], the remaining binding at 1 µM came to 97% in experiment [1]; 98% in experiment [2]; 100% in [3]; 100% in experiment [4]; 11% in [5]; 62% in experiment [6]. Further, the remaining binding at 1 µM in [7] was 72%; in [8], 69%; in [9], 100%; in experiment [10] it was 64%; in experiment [11] it was 56%.
Take `O=C(c1ccc(-c2cnc3[nH]cc(Cl)c3c2NC2CCCC2)cc1)N1CCC(N2CCOCC2)CC1` [Compound 101, (4-(3-chloro-4-(cyclopentylamino)-1H-pyrrolo[2,3-b]pyridin-5-yl)phenyl)(4-morpholinopiperidin-1-yl)methanone]: the remaining binding at 1 µM was found to be 94% in experiment [1]; 100% in experiment [2]; 100% in experiment [3]; 96% in experiment [4]; 58% in experiment [5]; 72% in experiment [6]. Besides, the remaining binding at 1 µM in experiment [7] came to 80%; in [8], 100%; in experiment [9] it was 82%; in experiment [10] it was 33%; in [11], 100%.
